Patent publication US20110166121A1 (LG LIFE SCIENCES LTD., priority 2008, published 2011)

Key:
[1] = system: Human platelet aggregation caused by ADP; assay: Inhibition of ADP-induced platelet aggregation (Mimic-human PRP); format: cell-based; conditions: 20 μM ADP, human platelet concentrate diluted with PPP, absorption at 595 nm
Summary of the method: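 Ki came from non-linear sigmoidal fits of inhibition, measured as the 3-min rise in absorbance at 595 nm after 20 μM ADP, relative to 0/20 μM ADP controls. Platelets (3–4×10^8/mL in PPP-diluted human PRP) were exposed to 0.01–30 μM compound for 20 min at room temperature beforehand.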

Human P2Y12 receptor = target: T1, Human P2Y12 receptor (Homo sapiens, UniProt Q9H244); assay: Human P2Y12 receptor cell membrane binding assay with [3H] 2-Mes-ADP; conditions: 1 nM [3H] 2-Mes-ADP, membranes of HEK cells expressing P2Y12 receptor; read-out: Binding activity (IC50)
T1 construct: expressed in transfected cells; host or cells: HEK cells
T1 sequence (Q9H244 whole entry): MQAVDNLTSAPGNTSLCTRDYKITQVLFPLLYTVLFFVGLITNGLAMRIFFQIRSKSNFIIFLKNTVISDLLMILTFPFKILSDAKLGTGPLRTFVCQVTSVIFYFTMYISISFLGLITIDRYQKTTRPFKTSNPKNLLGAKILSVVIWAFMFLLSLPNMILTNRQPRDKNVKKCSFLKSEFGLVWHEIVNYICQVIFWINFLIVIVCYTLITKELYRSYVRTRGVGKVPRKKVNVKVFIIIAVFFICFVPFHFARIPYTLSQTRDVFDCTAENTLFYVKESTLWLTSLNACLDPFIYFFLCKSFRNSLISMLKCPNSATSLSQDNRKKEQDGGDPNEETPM
Summary of the method: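 Competition binding used 1 nM [3H]2-MeS-ADP on P2Y12-expressing HEK cell membranes for 1 h at room temperature, followed by filtration and scintillation counting.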

Structure (SMILES)	Ki [1]	IC50 (Human P2Y12 receptor)
CCCc1cc2c(N3CCn4c(nnc4C(F)(F)F)C3)nc(OCCNCC(=O)O)nc2s1 [Example 3-55, {2-[6-Propyl-4-(3-trifluoromethyl-5,6-dihydro-8H-[1,2,4]triazolo[4,3-a]pyrazin-7-yl)-thieno[2,3-d]pyrimidin-2-yloxy]-ethylamino}-acetic acid]	25 nM	150 nM
CCCc1cc2c(N3CCn4c(nnc4C(F)(F)F)C3)nc(Oc3ccc(CC(=O)O)cc3)nc2s1 [Example 3-40, {4-[6-Propyl-4-(3-trifluoromethyl-5,6-dihydro-8H-[1,2,4]triazolo[4,3-a]pyrazin-7-yl)-thieno[2,3-d]pyrimidin-2-yloxy]-phenyl}-acetic acid]	1200 nM	230 nM
CCCc1cc2c(N3CCn4c(nnc4C(F)(F)F)C3)nc(OCCC(OC)OC)nc2s1 [Example 3-14, 7-[2-(3,3-Dimethoxy-propoxy)-6-propyl-thieno[2,3-d]pyrimidin-4-yl]-3-trifluoromethyl-5,6,7,8-tetrahydro-[1,2,4]triazolo[4,3-a]pyrazine]	1100 nM	240 nM
CCCc1cc2c(N3CCn4c(nnc4C(F)(F)F)C3)nc(N3CCC[C@H](N)C3)nc2s1 [Example 1-125, (S)-1-[6-Propyl-4-(3-trifluoromethyl-5,6-dihydro-8H-[1,2,4]triazolo[4,3-a]pyrazin-7-yl)-thieno[2,3-d]pyrimidin-2-yl]-piperidin-3-ylamine]	45 nM	150 nM
CCCc1cc2c(N3CCn4c(nnc4C(F)(F)F)C3)nc(N3CC[C@H](C(N)=O)C3)nc2s1 [Example 1-86, (S)-1-[6-Propyl-4-(3-trifluoromethyl-5,6-dihydro-8H-[1,2,4]triazolo[4,3-a]pyrazin-7-yl)-thieno[2,3-d]pyrimidin-2-yl]-pyrrolidine-3-carboxylic acid amide]	11 nM	24 nM
CCCc1cc2c(N3CCn4c(nnc4C(F)(F)F)C3)nc(OCCC(=O)OC(C)C)nc2s1 [Example 3-12, 3-[6-Propyl-4-(3-trifluoromethyl-5,6-dihydro-8H-[1,2,4]triazolo[4,3-a]pyrazin-7-yl)-thieno[2,3-d]pyrimidin-2-yloxy]-propionic acid isopropyl ester]	50 nM	160 nM
CCCc1cc2c(N3CCn4c(nnc4C(F)(F)F)C3)nc(N3CCCC(N)C3)nc2s1 (centres unmarked) [Example 1-70, 1-[6-Propyl-4-(3-trifluoromethyl-5,6-dihydro-8H-[1,2,4]triazolo[4,3-a]pyrazin-7-yl)-thieno[2,3-d]pyrimidin-2-yl]-piperidin-3-ylamine]	110 nM	167 nM
CCCc1cc2c(N3CCn4c(nnc4C(F)(F)F)C3)nc(Oc3ccc(C=O)cc3)nc2s1 [Example 3-47, 4-[6-Propyl-4-(3-trifluoromethyl-5,6-dihydro-8H-[1,2,4]triazolo[4,3-a]pyrazin-7-yl)-thieno[2,3-d]pyrimidin-2-yloxy]-benzaldehyde]	> 4000 nM	375 nM
CCCc1cc2c(N3CCn4c(nnc4C(F)(F)F)C3)nc(N(CCO)CCO)nc2s1 [Example 1-34, 2-{(2-Hydroxy-ethyl)-[6-propyl-4-(3-trifluoromethyl-5,6-dihydro-8H-[1,2,4]triazolo[4,3-a]pyrazin-7-yl)-thieno[2,3-d]pyrimidin-2-yl]-amino}-ethanol]	81 nM	143 nM
CCCc1cc2c(N3CCn4c(nnc4C(F)(F)F)C3)nc(N3CCNC(=O)C3)nc2s1 [Example 1-1, 4-[6-Propyl-4-(3-trifluoromethyl-5,6-dihydro-8H-[1,2,4]triazolo[4,3-a]pyrazin-7-yl)-thieno[2,3-d]pyrimidin-2-yl]-piperazin-2-one]	130 nM	20 nM
CCCc1cc2c(N3CCn4c(nnc4C(F)(F)F)C3)nc(C3=N[C@H](CC(=O)OC(C)C)CS3)nc2s1 [Example 4-48, {(R)-2-[6-Propyl-4-(3-trifluoromethyl-5,6-dihydro-8H-[1,2,4]triazolo[4,3-a]pyrazin-7-yl)thieno[2,3-d]pyrimidin-2-yl]-4,5-dihydro-thiazol-4-yl}acetic acid isopropyl ester]	510 nM	210 nM
CCCc1cc2c(N3CCn4c(nnc4C(F)(F)F)C3)nc(Oc3cccc(C#N)c3)nc2s1 [Example 3-37, 3-[6-Propyl-4-(3-trifluoromethyl-5,6-dihydro-8H-[1,2,4]triazolo[4,3-a]pyrazin-7-yl)-thieno[2,3-d]pyrimidin-2-yloxy]-benzonitrile]	1300 nM	198 nM
CCCc1cc2c(N3CCn4c(nnc4C(F)(F)F)C3)nc(N3Cc4ccccc4C3)nc2s1 [Example 1-72, 7-[2-(1,3-Dihydro-isoindol-2-yl)-6-propyl-thieno[2,3-d]pyrimidin-4-yl]-3-trifluoromethyl-5,6,7,8-tetrahydro-[1,2,4]triazolo[4,3-a]pyrazine]	> 4000 nM	517 nM
CCCc1cc2c(N3CCn4c(nnc4C(F)(F)F)C3)nc(N3CC[C@H](NC(=O)CCN)C3)nc2s1 [Example 1-110, 3-Amino-N-{(S)-1-[6-propyl-4-(3-trifluoromethyl-5,6-dihydro-8H-[1,2,4]triazolo[4,3-a]pyrazin-7-yl)-thieno[2,3-d]pyrimidin-2-yl]-pyrrolidin-3-yl}-propionamide]	60 nM	670 nM
CCCc1cc2c(N3CCn4c(nnc4C(F)(F)F)C3)nc(N3CCn4cc(C(F)(F)F)nc4C3)nc2s1 [Example 1-78, 7-[6-Propyl-2-(2-trifluoromethyl-5,6-dihydro-8H-imidazo[1,2-a]pyrazin-7-)-thieno[2,3-d]pyrimidin-4-yl]-3-trifluoromethyl-5,6,7,8-tetrahydro-[1,2,4]triazolo[4,3-a]pyrazine]	200 nM	110 nM
CCCc1cc2c(N3CCn4c(nnc4C(F)(F)F)C3)nc(N3CCN(S(=O)(=O)CC)CC3)nc2s1 [Example 1-8, 7-[2-(4-Ethanesulfonyl-piperazin-1-yl)-6-propyl-thieno[2,3-d]pyrimidin-4-yl]-3-trifluoromethyl-5,6,7,8-tetrahydro-[1,2,4]triazolo[4,3-a]pyrazine]	300 nM	56 nM
O[C@@H]1CCN(c2nc(N3CCn4c(nnc4C(F)(F)F)C3)c3cc(CCC(F)(F)F)sc3n2)C1 [Example 2-20, (R)-1-[4-(3-Trifluoromethyl-5,6-dihydro-8H-[1,2,4]triazolo[4,3-a]pyrazin-7-yl)-6-(3,3,3-trifluoro-propyl)-thieno[2,3-d]pyrimidin-2-yl]-pyrrolidin-3-ol]	40 nM	260 nM
CCc1cc2c(N3CCn4c(nnc4C(F)(F)F)C3)nc(NCCO)nc2s1 [Example 2-5, 2-[6-Ethyl-4-(3-trifluoromethyl-5,6-dihydro-8H-[1,2,4]triazolo[4,3-a]pyrazin-7-yl)-thieno[2,3-d]pyrimidin-2-ylamino]-ethanol]	857 nM	710 nM
CCCc1cc2c(N3CCn4c(nnc4C(F)(F)F)C3)nc(-c3nnc(CC(=O)OCC)o3)nc2s1 [Example 4-40, {5-[6-Propyl-4-(3-trifluoromethyl-5,6-dihydro-8H-[1,2,4]triazolo[4,3-a]pyrazin-7-yl)thieno[2,3-d]pyrimidin-2-yl]-[1,3,4]oxadiazol-2-yl}acetic acid ethyl ester]	270 nM	230 nM
CCCc1cc2c(N3CCn4c(nnc4C(F)(F)F)C3)nc(NC3CCNC3)nc2s1 (centres unmarked) [Example 1-98, [6-Propyl-4-(3-trifluoromethyl-5,6-dihydro-8H-[1,2,4]triazolo[4,3-a]pyrazin-7-yl)-thieno[2,3-d]pyrimidin-2-yl]-pyrrolidin-3-yl-amine]	32 nM	470 nM
CCCc1cc2c(N3CCn4c(nnc4C(F)(F)F)C3)nc(-c3nnc(CC4CCCCC4)o3)nc2s1 [Example 4-43, 7-[2-(5-Cyclohexylmethyl-[1,3,4]oxadiazol-2-yl)-6-propyl-thieno[2,3-d]pyrimidin-4-yl]-3-trifluoromethyl-5,6,7,8-tetrahydro-[1,2,4]triazolo[4,3-a]pyrazine]	2700 nM	147 nM
CCCc1cc2c(N3CCn4c(nnc4C(F)(F)F)C3)nc(O)nc2s1 [Example 3-27, 6-Propyl-4-(3-trifluoromethyl-5,6-dihydro-8H-[1,2,4]triazolo[4,3-a]pyrazin-7-yl)-thieno[2,3-d]pyrimidin-2-ol]	8800 nM	5380 nM
CCCc1cc2c(N3CCn4c(nnc4C(F)(F)F)C3)nc(N3CCCC(C(=O)OCOC(=O)C(C)(C)C)C3)nc2s1 (centres unmarked) [Example 1-48, 1-[6-Propyl-4-(3-trifluoromethyl-5,6-dihydro-8H-[1,2,4]triazolo[4,3-a]pyrazin-7-yl)-thieno[2,3-d]pyrimidin-2-yl]-piperidine-3-carboxylic acid 2,2-dimethyl-propionyloxymethyl ester]	1300 nM	400 nM
CCCc1cc2c(N3CCn4c(nnc4C(F)(F)F)C3)nc(Oc3ccc(C(=O)OC)cc3)nc2s1 [Example 3-34, 4-[6-Propyl-4-(3-trifluoromethyl-5,6-dihydro-8H-[1,2,4]triazolo[4,3-a]pyrazin-7-yl)-thieno[2,3-d]pyrimidin-2-yloxy]-benzoic acid methyl ester]	> 4000 nM	473 nM
CCCc1cc2c(N3CCn4c(nnc4C(F)(F)C(F)(F)F)C3)nc(NCCO)nc2s1 [Example 6-7, 2-[4-(3-Pentafluoroethyl-5,6-dihydro-8H-[1,2,4]triazolo[4,3-a]pyrazin-7-yl)-6-propyl-thieno[2,3-d]pyrimidin-2-ylamino]-ethanol]	407 nM	490 nM
